Literature values in patent publication US9695323B2, “UV curable solventless antimicrobial compositions” (Becton, Dickinson and Company, priority 2013, dated 2017).

Tested on: Staphylococcus epidermidis

CC(=O)O.CC(=O)O.NC(=N\CCCCCC/N=C(N)/N=C(\N)Nc1ccc(Cl)cc1)/N=C(\N)Nc1ccc(Cl)cc1 [chlorhexidine diacetate]
minimum inhibitory concentration: 2 µg/mL
